Assay results as given in US10206394B2, “Herbicidal compounds” (Syngenta Participations AG, priority 2014, dated 2019).
Where two headings read alike, the source gives them in different places.

How the values were obtained:
Assay in all cases: Glasshouse assay for herbicidal activity (pre- and post-emergence), percentage phytotoxicity
Type in all cases: in vivo
[1] = system: Alopecurus myosuroides (ALOMY); conditions: for pest or weed control at 250 g/ha: Alopecurus myosuroides
Procedure, shortened: (§1)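 Pot-grown, standard soil. PRE: spray 1 d post-sowing; POST: ~12 d. Glasshouse 24/18 °C (warm spp.) / 20/16 °C (cool spp.), 16 h light, 65% RH, watered 2×/day. Visual % damage, 20 DAA PRE, 15 DAA POST.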

[2] = system: Lolium perenne (LOLPE); conditions: for pest or weed control at 250 g/ha: Lolium perenne
Procedure, shortened: as §1

[3] = system: Echinochloa crus-galli (ECHCG); conditions: for pest or weed control at 250 g/ha: Echinochloa crus-galli
Procedure, shortened: as §1

[4] = system: Avena fatua (AVEFA); conditions: for pest or weed control at 250 g/ha: Avena fatua
Procedure, shortened: as §1

[5] = post-emergence, 360 h, 250 g/ha, post-emergence, 15 DAA, visual assessment (100%=total damage, 0%=no damage), read-out: Post-emergence herbicidal activity (percentage phytotoxicity) ALOMY POST
[6] = pre-emergence, 480 h, 250 g/ha, pre-emergence, 20 DAA, visual assessment (100%=total damage, 0%=no damage), read-out: Pre-emergence herbicidal activity (percentage phytotoxicity) ALOMY PRE
[7] = post-emergence, 360 h, 250 g/ha, post-emergence, 15 DAA, visual assessment (100%=total damage, 0%=no damage), read-out: Post-emergence herbicidal activity (percentage phytotoxicity) LOLPE POST
[8] = pre-emergence, 480 h, 250 g/ha, pre-emergence, 20 DAA, visual assessment (100%=total damage, 0%=no damage), read-out: Pre-emergence herbicidal activity (percentage phytotoxicity) LOLPE PRE
[9] = post-emergence, 360 h, 250 g/ha, post-emergence, 15 DAA, visual assessment (100%=total damage, 0%=no damage), read-out: Post-emergence herbicidal activity (percentage phytotoxicity) ECHCG POST
[10] = pre-emergence, 480 h, 250 g/ha, pre-emergence, 20 DAA, visual assessment (100%=total damage, 0%=no damage), read-out: Pre-emergence herbicidal activity (percentage phytotoxicity) ECHCG PRE
[11] = post-emergence, 360 h, 250 g/ha, post-emergence, 15 DAA, visual assessment (100%=total damage, 0%=no damage), read-out: Post-emergence herbicidal activity (percentage phytotoxicity) AVEFA POST
[12] = pre-emergence, 480 h, 250 g/ha, pre-emergence, 20 DAA, visual assessment (100%=total damage, 0%=no damage), read-out: Pre-emergence herbicidal activity (percentage phytotoxicity) AVEFA PRE
[13] = post-emergence, 360 h, Rate 250 g/ha, post-emergence, assessed visually 15 DAA, 100%=total damage, 0%=no damage, read-out: Post-emergence herbicidal activity (percentage phytotoxicity) ALOMY POST
[14] = pre-emergence, 480 h, Rate 250 g/ha, pre-emergence, assessed visually 20 DAA, 100%=total damage, 0%=no damage, read-out: Pre-emergence herbicidal activity (percentage phytotoxicity) ALOMY PRE
[15] = post-emergence, 360 h, Rate 250 g/ha, post-emergence, assessed visually 15 DAA, 100%=total damage, 0%=no damage, read-out: Post-emergence herbicidal activity (percentage phytotoxicity) LOLPE POST
[16] = pre-emergence, 480 h, Rate 250 g/ha, pre-emergence, assessed visually 20 DAA, 100%=total damage, 0%=no damage, read-out: Pre-emergence herbicidal activity (percentage phytotoxicity) LOLPE PRE
[17] = post-emergence, 360 h, Rate 250 g/ha, post-emergence, assessed visually 15 DAA, 100%=total damage, 0%=no damage, read-out: Post-emergence herbicidal activity (percentage phytotoxicity) ECHCG POST
[18] = pre-emergence, 480 h, Rate 250 g/ha, pre-emergence, assessed visually 20 DAA, 100%=total damage, 0%=no damage, read-out: Pre-emergence herbicidal activity (percentage phytotoxicity) ECHCG PRE
[19] = post-emergence, 360 h, Rate 250 g/ha, post-emergence, assessed visually 15 DAA, 100%=total damage, 0%=no damage, read-out: Post-emergence herbicidal activity (percentage phytotoxicity) AVEFA POST
[20] = pre-emergence, 480 h, Rate 250 g/ha, pre-emergence, assessed visually 20 DAA, 100%=total damage, 0%=no damage, read-out: Pre-emergence herbicidal activity (percentage phytotoxicity) AVEFA PRE
[21] = Rate 250 g/ha, post-emergence, assessed visually 15 DAA, 100%=total damage, 0%=no damage
[22] = Rate 250 g/ha, pre-emergence, assessed visually 20 DAA, 100%=total damage, 0%=no damage

Cc1cc(-c2ncccc2Cl)cc(C)c1C1C(=O)CC(CC(=O)NC(C)(C)C)C1=O (stereo not drawn) [Compound B74]
pest or weed control at 250 g/ha [1, 5]: 60% | pest or weed control at 250 g/ha [1, 6]: 10% | pest or weed control at 250 g/ha [2, 7]: 50% | pest or weed control at 250 g/ha [2, 8]: 30% | pest or weed control at 250 g/ha [3, 9]: 60% | pest or weed control at 250 g/ha [3, 10]: 10% | pest or weed control at 250 g/ha [4, 11]: 60% | pest or weed control at 250 g/ha [4, 12]: 0%

C#CC(C)(C)NC(=O)CC1CC(=O)C(c2c(C)cc(Br)cc2C)C1=O (stereo not drawn) [Compound B127]
pest or weed control at 250 g/ha [1, 5]: 90% | pest or weed control at 250 g/ha [1, 6]: 90% | pest or weed control at 250 g/ha [2, 7]: 90% | pest or weed control at 250 g/ha [2, 8]: 70% | pest or weed control at 250 g/ha [3, 9]: 100% | pest or weed control at 250 g/ha [3, 10]: 70% | pest or weed control at 250 g/ha [4, 11]: 100% | pest or weed control at 250 g/ha [4, 12]: 80%

Cc1cc(OCC(F)(F)F)cc(C)c1C1C(=O)CC(CC(=O)NC(C)(C)C)C1=O (stereo not drawn) [Compound B139]
pest or weed control at 250 g/ha [1, 5]: 90% | pest or weed control at 250 g/ha [1, 6]: 60% | pest or weed control at 250 g/ha [2, 7]: 80% | pest or weed control at 250 g/ha [2, 8]: 90% | pest or weed control at 250 g/ha [3, 9]: 100% | pest or weed control at 250 g/ha [3, 10]: 100% | pest or weed control at 250 g/ha [4, 11]: 90% | pest or weed control at 250 g/ha [4, 12]: 50%

Cc1cc(C)c(C2=C(OC(=O)C(C)(C)C)CC(CC(=O)NC3COC3)C2=O)c(C)c1 (stereo not drawn) [Compound P13]
pest or weed control at 250 g/ha ([1]; post-emergence, 360 h, Rate 250 g/ha, post-emergence, visual assessment 15 DAA, 100%=total damage, 0%=no damage, read-out: Post-emergence herbicidal activity (percentage phytotoxicity) ALOMY POST): 80% | pest or weed control at 250 g/ha ([1]; pre-emergence, 480 h, Rate 250 g/ha, pre-emergence, visual assessment 20 DAA, 100%=total damage, 0%=no damage, read-out: Pre-emergence herbicidal activity (percentage phytotoxicity) ALOMY PRE): 50% | pest or weed control at 250 g/ha ([2]; post-emergence, 360 h, Rate 250 g/ha, post-emergence, visual assessment 15 DAA, 100%=total damage, 0%=no damage, read-out: Post-emergence herbicidal activity (percentage phytotoxicity) LOLPE POST): 70% | pest or weed control at 250 g/ha ([2]; pre-emergence, 480 h, Rate 250 g/ha, pre-emergence, visual assessment 20 DAA, 100%=total damage, 0%=no damage, read-out: Pre-emergence herbicidal activity (percentage phytotoxicity) LOLPE PRE): 10% | pest or weed control at 250 g/ha ([3]; post-emergence, 360 h, Rate 250 g/ha, post-emergence, visual assessment 15 DAA, 100%=total damage, 0%=no damage, read-out: Post-emergence herbicidal activity (percentage phytotoxicity) ECHCG POST): 80% | pest or weed control at 250 g/ha ([3]; pre-emergence, 480 h, Rate 250 g/ha, pre-emergence, visual assessment 20 DAA, 100%=total damage, 0%=no damage, read-out: Pre-emergence herbicidal activity (percentage phytotoxicity) ECHCG PRE): 20% | pest or weed control at 250 g/ha ([4]; post-emergence, 360 h, Rate 250 g/ha, post-emergence, visual assessment 15 DAA, 100%=total damage, 0%=no damage, read-out: Post-emergence herbicidal activity (percentage phytotoxicity) AVEFA POST): 70% | pest or weed control at 250 g/ha ([4]; pre-emergence, 480 h, Rate 250 g/ha, pre-emergence, visual assessment 20 DAA, 100%=total damage, 0%=no damage, read-out: Pre-emergence herbicidal activity (percentage phytotoxicity) AVEFA PRE): 10%

Cc1cc(-c2ncc(Cl)cc2F)cc(C)c1C1C(=O)CC(CC(=O)NCC2CC2(Cl)Cl)C1=O (stereo not drawn) [Compound B160]
pest or weed control at 250 g/ha [1, 5]: 100% | pest or weed control at 250 g/ha [1, 6]: 90% | pest or weed control at 250 g/ha [2, 7]: 100% | pest or weed control at 250 g/ha [2, 8]: 90% | pest or weed control at 250 g/ha [3, 9]: 100% | pest or weed control at 250 g/ha [3, 10]: 100% | pest or weed control at 250 g/ha [4, 11]: 100% | pest or weed control at 250 g/ha [4, 12]: 80%

CC#Cc1cc(C)c(C2C(=O)CC(CC(=O)NCc3cnc(C)cn3)C2=O)c(C)c1 (stereo not drawn) [Compound A144]
pest or weed control at 250 g/ha [1, 13]: 80% | pest or weed control at 250 g/ha [1, 14]: 80% | pest or weed control at 250 g/ha [2, 15]: 90% | pest or weed control at 250 g/ha [2, 16]: 90% | pest or weed control at 250 g/ha [3, 17]: 100% | pest or weed control at 250 g/ha [3, 18]: 100% | pest or weed control at 250 g/ha [4, 19]: 100% | pest or weed control at 250 g/ha [4, 20]: 90%

Cc1cc(-c2cnc(Cl)cn2)cc(C)c1C1C(=O)CC(CC(=O)NCc2cccc(C(F)(F)F)c2)C1=O (stereo not drawn) [Compound A149]
Post-emergence herbicidal activity (percentage phytotoxicity) ALOMY POST [1, 21]: 100% | Pre-emergence herbicidal activity (percentage phytotoxicity) ALOMY PRE [1, 22]: 80% | Post-emergence herbicidal activity (percentage phytotoxicity) LOLPE POST [2, 21]: 100% | Pre-emergence herbicidal activity (percentage phytotoxicity) LOLPE PRE [2, 22]: 90% | Post-emergence herbicidal activity (percentage phytotoxicity) ECHCG POST [3, 21]: 100% | Pre-emergence herbicidal activity (percentage phytotoxicity) ECHCG PRE [3, 22]: 100% | Post-emergence herbicidal activity (percentage phytotoxicity) AVEFA POST [4, 21]: 100% | Pre-emergence herbicidal activity (percentage phytotoxicity) AVEFA PRE [4, 22]: 100%

Cc1cc(-c2ccc(Cl)cn2)cc(C)c1C1C(=O)CC(CC(=O)NC(C)(C)C)C1=O (stereo not drawn) [Compound A41]
pest or weed control at 250 g/ha [1, 13]: 100% | pest or weed control at 250 g/ha [1, 14]: 100% | pest or weed control at 250 g/ha [2, 15]: 100% | pest or weed control at 250 g/ha [2, 16]: 100% | pest or weed control at 250 g/ha [3, 17]: 100% | pest or weed control at 250 g/ha [3, 18]: 100% | pest or weed control at 250 g/ha [4, 19]: 100% | pest or weed control at 250 g/ha [4, 20]: 70%

Cc1cc(C)c(C2C(=O)CC(CC(=O)NC3CC(F)C3)C2=O)c(C)c1 (stereo not drawn) [Compound A181]
pest or weed control at 250 g/ha ([1]; post-emergence, 360 h, post-emergence, 250 g/ha, 15 DAA, visual score (100%=total damage; 0%=no damage), read-out: ALOMY POST herbicidal activity (percentage phytotoxicity)): 90% | pest or weed control at 250 g/ha ([1]; pre-emergence, 480 h, pre-emergence, 250 g/ha, 20 DAA, visual score (100%=total damage; 0%=no damage), read-out: ALOMY PRE herbicidal activity (percentage phytotoxicity)): 90% | pest or weed control at 250 g/ha ([2]; post-emergence, 360 h, post-emergence, 250 g/ha, 15 DAA, visual score (100%=total damage; 0%=no damage), read-out: LOLPE POST herbicidal activity (percentage phytotoxicity)): 100% | pest or weed control at 250 g/ha ([2]; pre-emergence, 480 h, pre-emergence, 250 g/ha, 20 DAA, visual score (100%=total damage; 0%=no damage), read-out: LOLPE PRE herbicidal activity (percentage phytotoxicity)): 100% | pest or weed control at 250 g/ha ([3]; post-emergence, 360 h, post-emergence, 250 g/ha, 15 DAA, visual score (100%=total damage; 0%=no damage), read-out: ECHCG POST herbicidal activity (percentage phytotoxicity)): 80% | pest or weed control at 250 g/ha ([3]; pre-emergence, 480 h, pre-emergence, 250 g/ha, 20 DAA, visual score (100%=total damage; 0%=no damage), read-out: ECHCG PRE herbicidal activity (percentage phytotoxicity)): 90% | pest or weed control at 250 g/ha ([4]; post-emergence, 360 h, post-emergence, 250 g/ha, 15 DAA, visual score (100%=total damage; 0%=no damage), read-out: AVEFA POST herbicidal activity (percentage phytotoxicity)): 90% | pest or weed control at 250 g/ha ([4]; pre-emergence, 480 h, pre-emergence, 250 g/ha, 20 DAA, visual score (100%=total damage; 0%=no damage), read-out: AVEFA PRE herbicidal activity (percentage phytotoxicity)): 90%
